Data: patent publication US8901137B2, “Methods of treating cancer using pyridopyrimidinone inhibitors of PI3K and mTOR in combination with autophagy inhibitors” (Exelixis, Inc., priority 2010, dated 2014)

Columns and labels:
PDAC cell lines = assay: Apoptosis induction in PDAC cell lines (PI/Annexin V, FACS); type: cell-based; settings: representative subset of PDAC cell lines, dual staining with PI and Annexin V, FIG. 1
BxPC-3 cells = assay: BxPC-3 xenograft tumor growth in Nu/Nu mice (Biological Example 8B); type: in vivo; settings: BxPC-3 s.c. in Nu/Nu mice; Compound A 30 mg/kg oral gavage, CQ 50 mg/kg i.p., 5 times/week, 28 days; FIG. 4B
Description: Female 7-9 weeks old Nu/Nu mice (Harlan, FoxN 1/nude) were inoculated s.c. with 10^7 BxPC-3 cells. Mice were monitored according to the protocol approved by the University of California, San Francisco Institutional Animal Care and Use Committee. When tumors reached about 100 mm^3, mice were randomly assigned to one of […] treatment groups: vehicle control, Compound A 30 mg/kg, Chloroquine (CQ) 50 mg/kg, Compound A+CQ. Compound A was solubilized in water/10 mM HCl, Compound B was dissolved in water, both drugs were administered by oral gavage once a day 5 times/week. CQ was dissolved in saline and injected i.p daily, 5 times/week. Each treatment regimen was tested in cohorts of eight mice and the dosing was continued for 28 days. Tumor sizes were measured twice weekly in two dimensions using a caliper, tumor size (mm^3) was calculated as (length×width^2)/2. Animals were monitored for toxicity by measuring body weight twice weekly and monitoring overall activity.
Dbata are expressed as means+/−standard deviation. Statistical analysis was performed by using Student's t-test (two-tailed). P values of <0.05 were considered significant.

MiaPaCa2 cells [1] = assay: Induction of autophagy by acridine orange staining and FACS analysis; type: cell-based; settings: FIG. 2B
Source text: Occurrence of cytoplasmic vacuoles in tumor cells treated with dual-targeted inhibitors are consistently observed. […] A variety of assays, including LC3-I to LC3-II conversion, acridin orange supravital staining, and MDC staining indicate whether treatment of pancreatic cancer cells with a compound of the invention will induce autophagy.

MiaPaCa2 cells [2] = assay: Induction of apoptosis in MiaPaCa2 cells by FACS analysis; type: cell-based; settings: 72 hours, FIG. 2A
[3] = test system: Xenograft tumors derived from BxPC3 cells; assay: BxPC3 xenograft tumor growth in nude mice (Biological Example 8A); type: in vivo; settings: BxPC3 subcutaneous flank tumors in nude mice, once daily dosing, 30 days; FIG. 4A
Description: Whether autophagy inhibition increased the activity of Compound A in vivo was explored. Xenograft tumors derived from BxPC3 cells were grown subcutaneously as flank tumors in nude mice to a size of 150 mm^3. Treatment with Compound A, alone or in combination with choloroquine, was administered for 30 days. Treatment with Compound A along and Compound A in combination with chloroquine was carried out by once daily dosing as indicated. Tumor volume was measured regularly. Tumors were harvested from euthanized mice for protein expression analyses.

pancreatic cancer cells = assay: Effect of autophagy inhibitors on autophagy and apoptosis of treated cells; type: cell-based
Source text: We therefore tested whether inhibitors of autophagy or apoptosis could shift the cellular response from autophagy to apoptosis or vice versa.

CCn1c(=O)c(-c2ccn[nH]2)cc2c(C)nc(N)nc21 [Compound A]
apoptosis induction (PDAC cell lines): apoptosis induction
tumor growth (tumor size) (BxPC-3 cells): no clear growth-inhibitory effect
induction of autophagy (MiaPaCa2 cells [1]): induction of autophagy
induction of apoptosis (MiaPaCa2 cells [2]): induction of apoptosis
tumor growth (tumor volume) [3]: no clear growth-inhibitory effect

Cn1cnc(N)c2ncnc1-2 [Example 3-MA, 3-methyladenine]
autophagy (pancreatic cancer cells; autophagy inhibitor added to cells treated with dual-targeted inhibitor, data not shown): inhibited autophagy
fraction of cells undergoing apoptosis (pancreatic cancer cells; autophagy inhibitor added, FIG. 3: Compound A with or without CQ 5 mM, 72 hours, PI/Annexin-V FACS): significantly increased
